# Results from the kinase profiling compilation of Christmann-Franck et al. (2016).
# Experiments:
# Experiment in all cases: radiometric filter-binding kinase assay, Kinase HotSpot
# Conditions in all cases: compound 0.5 µM; ATP 10 µM
# PAK2 (human) = PAK2 (human) (UniProt Q13177)
# DSTYK (human) = DSTYK (human) (UniProt Q6XUX3)
# EPHA1 (human) = EPHA1 (human) (UniProt P21709)
# PRKX (human) = PRKX (human) (UniProt P51817)
# MELK (human) = MELK (human) (UniProt Q14680)
# LRRK2 (human) = LRRK2 (human) (UniProt Q5S007)
# FLT3 (human) = FLT3 (human) (UniProt P36888)
# ALK (human) = ALK (human) (UniProt Q9UM73)
# RPS6KA2 KD1 KD2 (human) = RPS6KA2 KD1 KD2 (human) (UniProt Q15349)
# GSK3A (human) = GSK3A (human) (UniProt P49840)
# Chain of GSK3A (human) (P49840 whole entry, looked up): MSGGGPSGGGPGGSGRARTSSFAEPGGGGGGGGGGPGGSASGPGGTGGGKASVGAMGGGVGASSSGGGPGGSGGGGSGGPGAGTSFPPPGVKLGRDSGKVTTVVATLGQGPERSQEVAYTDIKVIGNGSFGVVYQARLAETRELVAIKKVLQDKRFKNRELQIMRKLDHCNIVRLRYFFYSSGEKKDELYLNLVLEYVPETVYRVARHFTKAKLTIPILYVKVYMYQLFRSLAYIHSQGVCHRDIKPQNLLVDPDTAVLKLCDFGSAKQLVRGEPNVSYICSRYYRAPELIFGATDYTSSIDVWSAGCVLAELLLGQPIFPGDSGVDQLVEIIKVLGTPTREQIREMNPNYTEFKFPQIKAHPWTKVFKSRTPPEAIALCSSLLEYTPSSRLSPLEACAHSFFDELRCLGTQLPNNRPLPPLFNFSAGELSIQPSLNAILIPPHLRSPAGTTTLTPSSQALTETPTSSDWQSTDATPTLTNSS
# MAPK3 (human) = MAPK3 (human) (UniProt P27361)
# FGFR4 (human) = FGFR4 (human) (UniProt P22455)
# CDK1 CCNA2 (human) = CDK1 CCNA2 (human) (UniProt P06493+P20248)
# DAPK2 (human) = DAPK2 (human) (UniProt Q9UIK4)
# FGR (human) = FGR (human) (UniProt P09769)
# CLK4 (human) = CLK4 (human) (UniProt Q9HAZ1)
# PNCK (human) = PNCK (human) (UniProt Q6P2M8)
# NEK1 (human) = NEK1 (human) (UniProt Q96PY6)
# CSNK1G2 (human) = CSNK1G2 (human) (UniProt P78368)
# Chain of CSNK1G2 (human) (P78368 whole entry, looked up): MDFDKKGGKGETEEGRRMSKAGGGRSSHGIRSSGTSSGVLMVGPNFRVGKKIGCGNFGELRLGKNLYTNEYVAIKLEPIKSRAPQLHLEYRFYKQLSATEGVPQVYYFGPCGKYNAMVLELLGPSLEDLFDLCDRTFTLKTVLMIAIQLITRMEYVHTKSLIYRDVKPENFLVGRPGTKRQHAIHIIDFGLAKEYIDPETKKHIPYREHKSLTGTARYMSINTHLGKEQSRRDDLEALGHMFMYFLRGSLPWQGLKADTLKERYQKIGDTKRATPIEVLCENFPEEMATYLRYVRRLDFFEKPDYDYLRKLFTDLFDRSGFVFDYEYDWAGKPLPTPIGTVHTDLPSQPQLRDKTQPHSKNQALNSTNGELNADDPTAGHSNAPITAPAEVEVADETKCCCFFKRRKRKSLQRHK
# PRKCE (human) = PRKCE (human) (UniProt Q02156)
# Chain of PRKCE (human) (Q02156 whole entry, looked up): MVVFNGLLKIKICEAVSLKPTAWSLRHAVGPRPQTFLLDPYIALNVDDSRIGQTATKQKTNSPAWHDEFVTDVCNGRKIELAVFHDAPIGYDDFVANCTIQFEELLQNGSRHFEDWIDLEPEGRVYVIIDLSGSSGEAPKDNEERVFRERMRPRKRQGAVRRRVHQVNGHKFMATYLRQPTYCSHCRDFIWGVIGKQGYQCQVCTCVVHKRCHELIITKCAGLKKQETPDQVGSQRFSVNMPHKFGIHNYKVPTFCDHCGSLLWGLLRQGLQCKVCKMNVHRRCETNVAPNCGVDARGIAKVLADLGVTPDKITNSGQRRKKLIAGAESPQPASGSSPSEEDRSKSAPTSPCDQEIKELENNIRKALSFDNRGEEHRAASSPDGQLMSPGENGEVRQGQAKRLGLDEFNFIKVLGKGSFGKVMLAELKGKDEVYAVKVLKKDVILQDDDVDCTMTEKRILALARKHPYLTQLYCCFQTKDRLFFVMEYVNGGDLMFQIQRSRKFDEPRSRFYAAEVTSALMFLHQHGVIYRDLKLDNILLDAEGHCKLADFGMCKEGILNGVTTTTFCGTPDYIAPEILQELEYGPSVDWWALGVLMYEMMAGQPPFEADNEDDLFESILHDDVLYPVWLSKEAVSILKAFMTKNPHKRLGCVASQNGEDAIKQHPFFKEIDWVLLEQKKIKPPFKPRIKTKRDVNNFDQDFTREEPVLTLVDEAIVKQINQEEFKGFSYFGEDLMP
# GRK5 (human) = GRK5 (human) (UniProt P34947)
# MAPK14 (human) = MAPK14 (human) (UniProt Q16539)
# DYRK4 (human) = DYRK4 (human) (UniProt Q9NR20)
# TAOK3 (human) = TAOK3 (human) (UniProt Q9H2K8)
# MAPKAPK3 (human) = MAPKAPK3 (human) (UniProt Q16644)
# CDK5 CDK5R1 p25 (human) = CDK5 CDK5R1 p25 (human) (UniProt Q00535+Q15078)
# Chain of CDK5 CDK5R1 p25 (human) (Q00535 whole entry, looked up): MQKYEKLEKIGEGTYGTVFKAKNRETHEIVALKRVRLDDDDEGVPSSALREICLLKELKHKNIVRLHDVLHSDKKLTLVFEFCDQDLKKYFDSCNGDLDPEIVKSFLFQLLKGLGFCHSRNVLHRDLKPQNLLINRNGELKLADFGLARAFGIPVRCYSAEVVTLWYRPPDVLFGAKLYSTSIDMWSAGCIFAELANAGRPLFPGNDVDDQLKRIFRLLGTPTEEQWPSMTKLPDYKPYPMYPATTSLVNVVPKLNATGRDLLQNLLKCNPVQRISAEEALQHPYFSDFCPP
# Chain of CDK5 CDK5R1 p25 (human) (Q15078 whole entry, looked up): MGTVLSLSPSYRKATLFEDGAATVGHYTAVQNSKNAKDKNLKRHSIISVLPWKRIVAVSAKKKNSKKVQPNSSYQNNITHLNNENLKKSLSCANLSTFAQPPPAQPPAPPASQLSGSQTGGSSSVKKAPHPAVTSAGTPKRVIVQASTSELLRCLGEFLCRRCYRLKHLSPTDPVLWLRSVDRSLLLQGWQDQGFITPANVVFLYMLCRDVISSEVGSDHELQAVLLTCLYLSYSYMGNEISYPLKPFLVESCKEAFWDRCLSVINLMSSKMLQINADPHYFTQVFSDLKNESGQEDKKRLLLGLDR
# FRK (human) = FRK (human) (UniProt P42685)
# PRKCH (human) = PRKCH (human) (UniProt P24723)
# FGFR1 (human) = FGFR1 (human) (UniProt P11362)
# PKN2 (human) = PKN2 (human) (UniProt Q16513)
# CAMK4 (human) = CAMK4 (human) (UniProt Q16566)
# CHEK2 (human) = CHEK2 (human) (UniProt O96017)
# Chain of CHEK2 (human) (O96017 whole entry, looked up): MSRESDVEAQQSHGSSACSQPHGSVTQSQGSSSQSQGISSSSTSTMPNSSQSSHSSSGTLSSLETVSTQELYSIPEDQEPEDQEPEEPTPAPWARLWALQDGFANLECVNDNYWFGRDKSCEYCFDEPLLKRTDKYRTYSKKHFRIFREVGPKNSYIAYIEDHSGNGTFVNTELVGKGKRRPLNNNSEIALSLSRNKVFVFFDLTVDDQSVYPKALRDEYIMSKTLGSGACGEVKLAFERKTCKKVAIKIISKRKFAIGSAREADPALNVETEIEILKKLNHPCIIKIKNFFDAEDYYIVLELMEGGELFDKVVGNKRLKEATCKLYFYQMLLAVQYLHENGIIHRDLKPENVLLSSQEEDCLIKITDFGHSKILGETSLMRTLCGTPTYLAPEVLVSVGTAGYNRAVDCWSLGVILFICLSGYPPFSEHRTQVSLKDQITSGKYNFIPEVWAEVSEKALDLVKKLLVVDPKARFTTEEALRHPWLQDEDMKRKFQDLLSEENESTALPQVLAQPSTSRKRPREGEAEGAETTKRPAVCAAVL
# MARK1 (human) = MARK1 (human) (UniProt Q9P0L2)
# Chain of MARK1 (human) (Q9P0L2 whole entry, looked up): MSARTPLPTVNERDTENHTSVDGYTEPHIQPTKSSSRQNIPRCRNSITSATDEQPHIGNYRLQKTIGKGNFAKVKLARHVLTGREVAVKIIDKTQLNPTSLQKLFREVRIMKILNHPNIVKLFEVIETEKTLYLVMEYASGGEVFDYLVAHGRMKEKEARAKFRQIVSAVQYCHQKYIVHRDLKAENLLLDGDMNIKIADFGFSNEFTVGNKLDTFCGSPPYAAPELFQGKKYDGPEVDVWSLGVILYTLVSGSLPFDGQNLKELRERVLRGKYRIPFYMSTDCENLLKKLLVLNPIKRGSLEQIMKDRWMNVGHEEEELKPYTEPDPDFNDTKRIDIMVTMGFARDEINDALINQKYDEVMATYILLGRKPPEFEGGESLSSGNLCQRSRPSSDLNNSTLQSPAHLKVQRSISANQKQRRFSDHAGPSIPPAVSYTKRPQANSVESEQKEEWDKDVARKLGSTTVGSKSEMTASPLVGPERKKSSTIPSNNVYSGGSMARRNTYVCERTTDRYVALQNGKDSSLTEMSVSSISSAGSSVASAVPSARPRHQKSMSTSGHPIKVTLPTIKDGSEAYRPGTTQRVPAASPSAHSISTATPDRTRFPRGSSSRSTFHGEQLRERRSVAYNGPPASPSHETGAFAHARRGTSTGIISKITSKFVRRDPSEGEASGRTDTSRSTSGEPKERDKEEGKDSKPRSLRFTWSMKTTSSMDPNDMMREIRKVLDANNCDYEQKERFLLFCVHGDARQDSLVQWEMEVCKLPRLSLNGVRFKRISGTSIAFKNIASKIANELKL
# SGK2 (human) = SGK2 (human) (UniProt Q9HBY8)
# HIPK3 (human) = HIPK3 (human) (UniProt Q9H422)
# PRKACA (human) = PRKACA (human) (UniProt P17612)
# CAMKK1 (human) = CAMKK1 (human) (UniProt Q8N5S9)
# Chain of CAMKK1 (human) (Q8N5S9 whole entry, looked up): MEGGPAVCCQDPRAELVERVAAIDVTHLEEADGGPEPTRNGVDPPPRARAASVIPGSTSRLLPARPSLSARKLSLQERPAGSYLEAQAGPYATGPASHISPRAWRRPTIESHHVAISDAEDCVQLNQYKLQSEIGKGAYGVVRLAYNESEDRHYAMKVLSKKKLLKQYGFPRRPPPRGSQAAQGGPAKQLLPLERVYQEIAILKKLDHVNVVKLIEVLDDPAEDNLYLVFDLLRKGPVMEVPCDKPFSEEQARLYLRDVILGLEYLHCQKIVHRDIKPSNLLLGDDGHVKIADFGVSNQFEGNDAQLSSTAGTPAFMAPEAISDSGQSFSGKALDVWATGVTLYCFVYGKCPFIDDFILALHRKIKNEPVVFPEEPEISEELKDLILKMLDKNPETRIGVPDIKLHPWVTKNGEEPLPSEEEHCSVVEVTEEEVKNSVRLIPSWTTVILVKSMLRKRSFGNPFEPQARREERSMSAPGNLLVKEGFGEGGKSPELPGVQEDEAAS
# PASK (human) = PASK (human) (UniProt Q96RG2)
# WNK3 (human) = WNK3 (human) (UniProt Q9BYP7)
# MYLK2 (human) = MYLK2 (human) (UniProt Q9H1R3)
# Chain of MYLK2 (human) (Q9H1R3 whole entry, looked up): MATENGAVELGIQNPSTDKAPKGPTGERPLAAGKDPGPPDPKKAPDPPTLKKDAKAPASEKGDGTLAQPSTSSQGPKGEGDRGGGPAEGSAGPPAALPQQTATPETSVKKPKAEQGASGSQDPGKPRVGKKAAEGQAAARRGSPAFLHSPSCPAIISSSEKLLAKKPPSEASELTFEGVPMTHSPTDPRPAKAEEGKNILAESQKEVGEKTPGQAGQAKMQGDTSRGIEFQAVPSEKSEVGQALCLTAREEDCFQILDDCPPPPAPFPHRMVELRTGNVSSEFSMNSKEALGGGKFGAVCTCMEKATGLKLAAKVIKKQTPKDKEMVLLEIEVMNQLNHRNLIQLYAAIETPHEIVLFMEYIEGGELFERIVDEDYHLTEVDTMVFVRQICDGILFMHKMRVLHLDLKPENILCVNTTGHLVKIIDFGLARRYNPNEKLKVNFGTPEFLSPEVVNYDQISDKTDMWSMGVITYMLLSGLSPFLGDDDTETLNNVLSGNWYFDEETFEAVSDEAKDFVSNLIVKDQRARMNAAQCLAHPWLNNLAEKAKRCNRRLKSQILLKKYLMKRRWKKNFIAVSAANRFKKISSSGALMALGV
# PRKCI (human) = PRKCI (human) (UniProt P41743)
# NTRK2 (human) = NTRK2 (human) (UniProt Q16620)
compound,measurement,setting,value
O=C(NC(NC(=S)Nc1ccc(F)c([N+](=O)[O-])c1)C(Cl)(Cl)Cl)C(c1ccccc1)c1ccccc1 (centres undefined),residual activity,PAK2 (human),100%
same,residual activity,DSTYK (human),100%
same,residual activity,EPHA1 (human),88.1%
same,residual activity,PRKX (human),106%
same,residual activity,MELK (human),102%
same,residual activity,LRRK2 (human),99.3%
same,residual activity,FLT3 (human),99.3%
same,residual activity,ALK (human),110%
same,residual activity,RPS6KA2 KD1 KD2 (human),101%
same,residual activity,GSK3A (human),105%
same,residual activity,MAPK3 (human),120%
same,residual activity,FGFR4 (human),100%
same,residual activity,CDK1 CCNA2 (human),101%
same,residual activity,DAPK2 (human),103%
same,residual activity,FGR (human),84.5%
same,residual activity,CLK4 (human),105%
same,residual activity,PNCK (human),115%
same,residual activity,NEK1 (human),101%
same,residual activity,CSNK1G2 (human),98.3%
same,residual activity,PRKCE (human),109%
same,residual activity,GRK5 (human),105%
same,residual activity,MAPK14 (human),101%
same,residual activity,DYRK4 (human),104%
same,residual activity,TAOK3 (human),121%
same,residual activity,MAPKAPK3 (human),106%
same,residual activity,CDK5 CDK5R1 p25 (human),96.8%
same,residual activity,FRK (human),103%
same,residual activity,PRKCH (human),103%
same,residual activity,FGFR1 (human),97.7%
same,residual activity,PKN2 (human),88.1%
same,residual activity,CAMK4 (human),98.5%
same,residual activity,CHEK2 (human),97.6%
same,residual activity,MARK1 (human),101%
same,residual activity,SGK2 (human),119%
same,residual activity,HIPK3 (human),105%
same,residual activity,PRKACA (human),102%
same,residual activity,CAMKK1 (human),128%
same,residual activity,PASK (human),104%
same,residual activity,WNK3 (human),108%
same,residual activity,MYLK2 (human),104%
same,residual activity,PRKCI (human),94%
same,residual activity,NTRK2 (human),97.7%
Nc1n[nH]c2nnc(-c3c(-c4ccccc4)nn4ccccc34)cc12,residual activity,PAK2 (human),100%
same,residual activity,DSTYK (human),95.9%
same,residual activity,EPHA1 (human),92.6%
same,residual activity,PRKX (human),101%
same,residual activity,MELK (human),102%
same,residual activity,LRRK2 (human),91.8%
same,residual activity,FLT3 (human),63.5%
same,residual activity,ALK (human),108%
same,residual activity,RPS6KA2 KD1 KD2 (human),96.5%
same,residual activity,GSK3A (human),81.2%
same,residual activity,MAPK3 (human),65.8%
same,residual activity,FGFR4 (human),104%
same,residual activity,CDK1 CCNA2 (human),101%
same,residual activity,DAPK2 (human),103%
same,residual activity,FGR (human),92.9%
same,residual activity,CLK4 (human),101%
same,residual activity,PNCK (human),99.6%
same,residual activity,NEK1 (human),109%
same,residual activity,CSNK1G2 (human),93.7%
same,residual activity,PRKCE (human),72.7%
same,residual activity,GRK5 (human),106%
same,residual activity,MAPK14 (human),94.6%
same,residual activity,DYRK4 (human),95.3%
same,residual activity,TAOK3 (human),101%
same,residual activity,MAPKAPK3 (human),103%
same,residual activity,CDK5 CDK5R1 p25 (human),101%
same,residual activity,FRK (human),101%
same,residual activity,PRKCH (human),77.2%
same,residual activity,FGFR1 (human),94.7%
same,residual activity,PKN2 (human),98.9%
same,residual activity,CAMK4 (human),94.2%
same,residual activity,CHEK2 (human),97%
same,residual activity,MARK1 (human),98%
same,residual activity,SGK2 (human),98.8%
same,residual activity,HIPK3 (human),95.3%
same,residual activity,PRKACA (human),97.7%
same,residual activity,CAMKK1 (human),125%
same,residual activity,PASK (human),99.8%
same,residual activity,WNK3 (human),101%
same,residual activity,MYLK2 (human),101%
same,residual activity,PRKCI (human),98.3%
same,residual activity,NTRK2 (human),89.7%
